# US11617718B2, “Process for producing a nano-CBD microemulsion system” (priority 2019, dated 2023)
# Where two headings read alike, the source gives them in different places.
# Assays:
# [1] = Water solubility / water-dispersing ability; assay type: physicochemical; conditions: FIG. 1, dispersed in water
# Method: Producing a carrier: 70 ml of PEG was heated to 70° C. 70 ml of the carrier was added to the above-prepared dispersal phase, this dispersal phase continued to be heating to 100° C. and stirred at a speed of 600 rpm.
# [2] = cited from earlier work
compound,measurement,setting,value
"C=C(C)[C@@H]1CCC(C)=C[C@H]1c1c(O)cc(CCCCC)cc1O [CBD, Cannabidiol]",water-dispersing ability,[1],insoluble in water
same,half-life,[2]; in vivo,about 9 hours
same,bioavailability,[2]; used nasally (inhalantly),about 31%
same,bioavailability,[2]; used orally,13-19%
